Test results published in publication PMC10791743, “Selective CK1α degraders exert antiproliferative activity against a broad range of human cancer cell lines” (Nature Communications, 2024).
“And” between values parts separate entries of the source, which are not always exact repeats. Identical values can stand only once. Like-named read-outs stand apart in the source and are kept apart here.

Columns and labels:
IKZF1 = molecular target: T1, IKZF1 (Homo sapiens, UniProt Q13422+Q96SW2); assay: IKZF1 HiBiT live-cell kinetic degradation assay (Jurkat cells); assay type: cell-based
T1 construct: engineered by CRISPR/Cas9 to express endogenous IKZF1 (Jurkat cells) with a HiBiT tag
T1 sequence (Q13422 whole entry): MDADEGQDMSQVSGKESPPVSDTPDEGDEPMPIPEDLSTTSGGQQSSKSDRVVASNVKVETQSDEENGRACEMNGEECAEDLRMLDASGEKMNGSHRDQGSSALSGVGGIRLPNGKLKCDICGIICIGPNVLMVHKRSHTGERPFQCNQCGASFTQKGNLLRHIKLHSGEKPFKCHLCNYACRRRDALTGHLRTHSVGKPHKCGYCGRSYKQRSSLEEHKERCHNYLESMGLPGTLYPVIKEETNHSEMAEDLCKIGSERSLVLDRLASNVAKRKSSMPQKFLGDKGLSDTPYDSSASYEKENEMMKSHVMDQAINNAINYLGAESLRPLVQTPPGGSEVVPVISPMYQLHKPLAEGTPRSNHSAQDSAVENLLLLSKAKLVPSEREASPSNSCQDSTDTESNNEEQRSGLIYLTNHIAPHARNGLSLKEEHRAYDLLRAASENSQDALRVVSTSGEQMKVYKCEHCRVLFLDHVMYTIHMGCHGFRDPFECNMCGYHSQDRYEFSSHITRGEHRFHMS
T1 sequence (Q96SW2 whole entry): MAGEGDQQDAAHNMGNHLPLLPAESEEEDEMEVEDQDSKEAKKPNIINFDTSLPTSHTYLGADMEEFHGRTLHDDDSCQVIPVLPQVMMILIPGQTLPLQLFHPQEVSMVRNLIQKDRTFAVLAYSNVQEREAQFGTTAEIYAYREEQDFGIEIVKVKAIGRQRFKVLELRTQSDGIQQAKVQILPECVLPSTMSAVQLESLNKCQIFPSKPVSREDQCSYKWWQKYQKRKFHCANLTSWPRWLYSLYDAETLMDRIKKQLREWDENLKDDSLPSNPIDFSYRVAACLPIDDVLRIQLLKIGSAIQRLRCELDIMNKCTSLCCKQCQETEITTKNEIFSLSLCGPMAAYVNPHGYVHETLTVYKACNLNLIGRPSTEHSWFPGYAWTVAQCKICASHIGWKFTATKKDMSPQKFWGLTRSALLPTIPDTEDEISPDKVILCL
T1 sequence (Q16531 whole entry partner): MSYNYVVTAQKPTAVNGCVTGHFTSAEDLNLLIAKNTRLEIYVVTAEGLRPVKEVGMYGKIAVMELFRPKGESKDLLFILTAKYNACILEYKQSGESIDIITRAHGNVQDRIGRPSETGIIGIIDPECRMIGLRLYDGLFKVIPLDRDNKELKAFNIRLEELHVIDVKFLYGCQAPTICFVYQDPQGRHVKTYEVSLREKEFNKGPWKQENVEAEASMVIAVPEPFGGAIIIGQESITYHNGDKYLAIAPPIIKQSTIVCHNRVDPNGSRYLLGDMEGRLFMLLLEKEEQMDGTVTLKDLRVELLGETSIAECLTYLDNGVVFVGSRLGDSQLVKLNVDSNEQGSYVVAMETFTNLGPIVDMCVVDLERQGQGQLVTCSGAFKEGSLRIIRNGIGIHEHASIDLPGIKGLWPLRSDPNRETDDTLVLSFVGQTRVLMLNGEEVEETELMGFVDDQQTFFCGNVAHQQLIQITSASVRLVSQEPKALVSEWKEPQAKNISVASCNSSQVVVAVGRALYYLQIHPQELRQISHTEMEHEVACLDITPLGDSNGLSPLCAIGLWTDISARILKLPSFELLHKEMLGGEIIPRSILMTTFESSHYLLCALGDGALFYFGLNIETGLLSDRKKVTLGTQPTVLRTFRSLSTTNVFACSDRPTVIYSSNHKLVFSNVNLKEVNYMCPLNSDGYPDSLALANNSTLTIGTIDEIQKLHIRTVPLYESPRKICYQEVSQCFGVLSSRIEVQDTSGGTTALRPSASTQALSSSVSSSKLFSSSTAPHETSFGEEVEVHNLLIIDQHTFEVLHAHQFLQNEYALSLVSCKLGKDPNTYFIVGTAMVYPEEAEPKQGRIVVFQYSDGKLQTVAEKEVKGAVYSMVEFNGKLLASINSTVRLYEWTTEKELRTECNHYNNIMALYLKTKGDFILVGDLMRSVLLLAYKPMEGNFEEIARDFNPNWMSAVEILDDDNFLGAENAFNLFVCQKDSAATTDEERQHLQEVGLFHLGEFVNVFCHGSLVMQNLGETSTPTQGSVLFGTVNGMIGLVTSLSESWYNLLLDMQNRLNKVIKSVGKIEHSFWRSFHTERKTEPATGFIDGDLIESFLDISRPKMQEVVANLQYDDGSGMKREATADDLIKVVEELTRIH
From the text: To measure cellular protein levels, we used cell lines that have been engineered by CRISPR/Cas9 to express endogenous CK1α (HEK293 cells) or IKZF1 (Jurkat cells) with a HiBiT tag, which when coupled with LgBiT expression forms NanoBiT, a bioluminescent protein that can be used for kinetic studies of protein degradation. […] Cell viability was also monitored with CellTiter Glo 2.0 (Promega) at the completion of the experiment to ensure that loss of protein was not a consequence of a loss of cell viability.
IKZF1-HiBiT Jurkat LgBiT stable cells were seeded at 60,000 cells/well in 50% growth media/50% CO2 independent medium supplemented with 10% FBS and 1× Endurazine substrate. […] A dose–response curve was generated by performing 3-fold dilutions of each compound including a DMSO-only control in growth media. For live cell kinetic degradation assays, diluted compounds were added to CK1α and β-catenin plates and placed in a GloMax Discover (Promega, Cat. #GM3000) preheated to 37 °C or added to IKZF1 plates and placed in a CLARIOstar Plus (BMG LABTECH) preheated to 37 °C.
Relative protein level was determined based on normalization to the DMSO control and reported at Fractional RLUs. Degradation rate and degradation maximums were calculated from Fractional RLUs as previously described[38] using GraphPad Prism software. β-catenin stabilization time of onset for each concentration curve was calculated in GraphPad Prism by fitting an unconstrained plateau followed by one phase association model using the equation below (Y = IF(X < X0, Y0,Y0+(Plateau−Y0)*(1−exp(−K*(X−X0))))). The parameter, X0 was used as time of onset for each compound concentration.

[1] = Plasma stability assay, human; assay type: in vitro ADME; settings: for Calculated Concentration: 0h standards set to Actual Concentration 100, IS warfarin, replicates
Method: page 32: Aldrich, Saint Louis, MO) were diluted into 0.1 M potassium phosphate buffer (PBS, pH 7.4, KH2PO4, Cat. No: P284-500; K2HPO4, Cat. No: BP363-500, Fisher Scientific, Fair Lawn, NJ) and mixed well. 40 μL of this solution was transferred into the above compounds plates. For the time 0 plate, 3 fold (v:v) cold acetonitrile with warfarin (400 ng/mL) as the internal standard was added to […] and B in PBS, pH 7.4) and no incubation. For the other five time points’ plates, 10 μL NADPH regenerating agent mixer was added to each well to initiate the reaction, the plate was sealed and incubated at 37° C on an orbital shaker (100 rpm) for the required time, followed by quenching of the reaction by adding 3-fold volume of cold acetonitrile with internal standard to each well. The final concentration of each component applied in this reaction was liver microsome protein at 0.5 […] After quenching, all plates were securely sealed and thoroughly mixed at 600 rpm for 10 minutes. Subsequently, centrifugation was performed at 4000 rpm for 20 minutes. The resulting supernatants […] analysis using UPLC–MS/MS. The assessment of metabolic stability involved determining the half- life through a least-squares fit of multiple time points, employing first-order kinetics. Plasma stability assay5: The degradation of human or mouse plasma was assessed by monitoring the gradual reduction of the parent compound over specified time intervals (0, 3, 24, and 48 hours). Human and mouse plasma samples were sourced from GeneTex (Irvine, CA). Test compound stock solutions, prepared at 10 mM in DMSO, were dispensed into triplicate wells of a 96-well microplate using the Labcyte Echo 650 dispenser. For plates, excluding the time 0-hour plate, plasma was […] The plate was sealed, incubated at 37°C on an orbital shaker (100 rpm) for the required duration, and then quenched with cold acetonitrile, incorporating warfarin as the internal standard. In the case of the time 0-hour plate, cold acetonitrile with the internal standard was added to each well before introducing plasma, eliminating page 33: the need for further incubation. Following quenching, all plates were thoroughly mixed at 600 rpm for 10 minutes and centrifuged at 4000 rpm for 20 minutes. Supernatants were transferred to […] MS/MS analysis. Plasma stability was evaluated by determining the half-life through a least-squares fit of multiple time points based on first-order kinetics. Plasma protein binding assay: Test compound stock solutions were prepared at a concentration of 10 mM in DMSO. A Single-Use RED (Rapid Equilibrium Dialysis) device was acquired from Thermo Scientific (Cat. No: 99006, Rockford, IL). The sample preparation for plasma protein binding followed a modified version of Waters' method6. After thawing, plasma was centrifuged at 1000 rpm for 10 minutes to eliminate any particulates. Each compound was then prepared at a concentration of 10 µM in either human or mouse plasma. In the plasma protein binding assessment, 300 µL of spiked plasma solutions were introduced into the sample chamber (indicated by the red ring), while 550 µL of DPBS was added to the adjacent chamber. The plate was sealed and incubated at 37°C on an orbital shaker (100 rpm) for 4 hours. Post -incubation, 50 µL aliquots were withdrawn from each side of the insert and dispensed into a 96 -well storage plate. To create analytically identical sample matrices (matrix matching), an equivalent volume of blank plasma or DPBS was added to the necessary wells, followed by quenching w ith 3-fold (v:v) cold acetonitrile containing warfarin as the internal standard. Subsequently, the sealed plates were well -mixed at 600 rpm for 10 minutes and then centrifuged at 4000 rpm for 20 minutes. Supernatants were transferred to analytical […] Test compound concentrations were quantified in both the buffer and plasma chambers by determining peak areas relative to the internal standard. […]

[2] = Jurkat, 0.111 uM, read-out: IKZF1 Percent Maximum Degradation
[3] = Jurkat, 10 µM, over 24 h, read-out: IKZF1 Dmax (HiBiT)
[4] = human plasma, regression of log concentration over time points 0, 3, 24, 48 h

## Cc1cccc(C(=O)Nc2ccc3c(c2)CN(C2CCC(=O)NC2=O)C3=O)c1 (stereo not shown) [SJ0040]
IKZF1; 10 uM, replicates, listed as SJ10040
  IKZF1 Percent Maximum Degradation: -2.54% and -2.18% and 5.17% and -2.35%
IKZF1; [2]
  Dmax at 0.111 µM: 0%
IKZF1; [3]
  Dmax at 10 µM: < 10%

## O=C1CCC(N2Cc3cc(Nc4noc5ccccc45)ccc3C2=O)C(=O)N1 (stereo not shown) [SJ3149]
IKZF1; 10 uM, replicates
  IKZF1 Percent Maximum Degradation: 11.66% and -2.50% and 4.13% and 1.42%
IKZF1; [3]
  Dmax at 10 µM: < 10%
[1]; human
  Plasma stability: 8.5 h

## O=C1CCC(N2Cc3c(CNC(=O)c4ccc(F)cc4)cccc3C2=O)C(=O)N1 (stereo not shown) [SJ7095]
IKZF1; 0.111 uM
  IKZF1 Percent Maximum Degradation: 51.56% and 53.98% and 57.51%
IKZF1; 0.333 uM
  IKZF1 Percent Maximum Degradation: 65.57% and 67.60% and 69.65%
IKZF1; 1 uM
  IKZF1 Percent Maximum Degradation: 74.04% and 75.26% and 77.24%
IKZF1; 3 uM
  IKZF1 Percent Maximum Degradation: 79.22% and 78.05% and 80.15%
IKZF1; 10 uM, replicates
  IKZF1 Percent Maximum Degradation: 80.57% and 81.85% and 92.17%
IKZF1; [2]
  Dmax at 0.111 µM: 51.7%
IKZF1; Jurkat, 0.333 uM, read-out: IKZF1 Percent Maximum Degradation
  Dmax at 0.333 µM: 64.8%
IKZF1; Jurkat, 1 uM, read-out: IKZF1 Percent Maximum Degradation
  Dmax at 1 µM: 73.8%
IKZF1; Jurkat, 3 uM, read-out: IKZF1 Percent Maximum Degradation
  Dmax at 3 µM: 78.4%
IKZF1; Jurkat, 10 uM, replicates, read-out: IKZF1 Percent Maximum Degradation
  Dmax at 10 µM: 80%
IKZF1; Jurkat, at 4 h
  DC50: 69 nM

## O=C1CCC(N2Cc3cc(Nc4noc5ccccc45)ccc3C2=O)C(=O)N1 (stereo not shown) [SJ001043149-1]
[1]; human plasma, time point 3h
  Calculated Concentration: 67.501 and 81.153 and 72.775
[1]; human plasma, time point 24h
  Calculated Concentration: 13.370 and 15.407 and 13.318
[1]; human plasma, time point 48h
  Calculated Concentration: 1.845 and 2.121 and 1.968
[1]; [4]
  Ke: 0.08114
  t(1/2): 8.5413
